Like-named read-outs stand apart in the source and are kept apart here.
Experiments:
[1] = tested on: BxPC-3; assay: MTT cell viability assay, BxPC-3; assay type: cell-based; details: for IC50: Homo sapiens, BxPC-3 pancreatic cancer, MTT, 72 h; for Selectivity Index (SI): IC50 in normal (HFF-1) fibroblast cells/IC50 in BxPC-3
Protocol: (§1) Compounds 4a–p were submitted to a preliminary MTT assay at a one-point screening concentration of 75 μM for 72 h, including 2b as a reference compound (Figure 3). […] The presence of the electron-donating methoxy group decreased the activity of 2b, in both the para and meta positions. […] Specifically, these compounds, namely 4d, 4e, 4f, 4h, 4i, 4j, 4k, 4l, and 4m, were tested at concentrations of 3, 6, 12 and 24 µM for 72 h. In addition, the nine compounds, together with 2b, were tested against human fibroblasts HFF-1, in order to evaluate their selectivity against tumor cells, as compared to normal cells. Effects on cancer or normal cell viability were extrapolated from concentration–response curves and are expressed as IC50 values in Table 2.
(§2) Pancreatic cancer (AsPC-1, BxPC-3, and Capan-2), paraganglioma (PTJ86i and PTJ64i) and normal fibroblast (HFF-1) cell lines were cultured as previously described. All compounds were dissolved in DMSO (stock solutions) and then diluted in culture media to the final working concentrations. In this way, the solutions were completely clear and devoid of any undissolved material by microscopic inspection. […] The effects of compounds 4a-p and 2b on cancer cell viability were tested by an MTT assay (Sigma-Aldrich, St. Louis, MO, USA), as described by Florio et al.. In the initial screening all compounds were tested at a one-point screening concentration of 75 μM for 72 h (five replica wells per each condition). […] For combined treatments, the experimental design was made according to the Chou–Talalay method for drug combination studies, as previously described.
(§3) IC50 values were extrapolated from concentration–response curves and calculated using the CompuSyn software. […] Based on this analysis, a CI < 1 indicates synergism, a CI = 1 indicates additive effects and a CI > 1 indicates antagonism. SI values were calculated as previously described. Comparisons of mean values were performed using an unpaired Student’s t-test. For multiple comparisons, a one-way ANOVA followed by Dunnett’s test were employed. A p-value < 0.05 was estimated as statistically significant.

[2] = tested on: PTJ86i; assay: MTT cell viability assay, PTJ86i; assay type: cell-based; details: for Selectivity Index (SI): IC50 in normal (HFF-1) fibroblast cells/IC50 in PTJ86i; for IC50: PTJ86i paraganglioma, MTT, 72 h
Protocol: as §1, §2, §3

[3] = tested on: PTJ86i; set-up: method as in PMID 28594934; details: PTJ86i paraganglioma, previously published; cited from earlier work
[4] = tested on: PTJ64i; assay: MTT cell viability assay, PTJ64i; assay type: cell-based; details: for Selectivity Index (SI): IC50 in normal (HFF-1) fibroblast cells/IC50 in PTJ64i; for IC50: PTJ64i paraganglioma, MTT, 72 h
Protocol: as §1, §2, §3

[5] = tested on: Capan-2; assay: MTT cell viability assay, Capan-2; assay type: cell-based; details: for IC50: Homo sapiens, Capan-2 pancreatic cancer, MTT, 72 h; for Selectivity Index (SI): IC50 in normal (HFF-1) fibroblast cells/IC50 in Capan-2
Protocol: as §1, §2, §3

[6] = tested on: HFF-1; assay: MTT cell viability assay, normal fibroblasts HFF-1; assay type: cell-based, human; details: Homo sapiens; HFF-1 normal cells, MTT, 72 h
Protocol: All compounds were dissolved in DMSO (stock solutions) and then diluted in culture media to the final working concentrations. […] The effects of compounds 4a-p and 2b on cancer cell viability were tested by an MTT assay (Sigma-Aldrich, St. Louis, MO, USA), as described by Florio et al. [17]. In the initial screening all compounds were tested at a one-point screening concentration of 75 μM for 72 h (five replica wells per each condition).
IC50 values were extrapolated from concentration–response curves and calculated using the CompuSyn software [45]. […] SI values were calculated as previously described [46]. Comparisons of mean values were performed using an unpaired Student’s t-test. For multiple comparisons, a one-way ANOVA followed by Dunnett’s test were employed. A p-value < 0.05 was estimated as statistically significant.

[7] = tested on: AsPC-1; assay: MTT cell viability assay, AsPC-1; assay type: cell-based; details: for IC50: Homo sapiens, ASPC1, AsPC-1 pancreatic cancer, MTT, 72 h; for Selectivity Index (SI): IC50 in normal (HFF-1) fibroblast cells/IC50 in AsPC-1
Protocol: as §1, §2, §3

[8] = tested on: PTJ64i; set-up: method as in PMID 28594934; details: PTJ64i paraganglioma, previously published; cited from earlier work
[9] = tested on: pancreatic (AsPC-1, BxPC-3, and Capan-2) and paraganglioma (PTJ64i and PTJ86i) cancer cell lines; assay: One-point MTT screening at 75 µM in cancer cell lines; assay type: cell-based; details: one-point screening concentration of 75 μM for 72 h, five cancer cell lines
Protocol: as §1, §2
Figure 3 Screening of the effects of novel derivatives (4a–p) on the viability of pancreatic (AsPC-1, BxPC-3, and Capan-2) and paraganglioma (PTJ64i and PTJ86i) cancer cell lines. The lead compound 2b was included as a reference and the histograms show the relative decrease of cancer cell viability observed after treatments, as compared to 2b. Cell viability was assessed by an MTT assay using compounds at 75 µM for 72 h. Data shown are the means ± SD of duplicate experiments with quintuplicate determinations and are calculated as ratios relative to the reference compound 2b (dashed line).

## O=C(Nc1ccccc1)C(Sc1nc2cc(Cl)ccc2s1)c1ccccc1 (stereo not shown) [2b, reference compound]
[1]
  IC50: 15 µM
  Selectivity Index (SI): 1.43
[2]
  Selectivity Index (SI): 1.28
[3]
  IC50: 16.7 µM
[4]
  Selectivity Index (SI): 2.52
[5]
  IC50: 19.7 µM
  Selectivity Index (SI): 1.09
[6]
  IC50: 21.4 µM
[7]
  IC50: 12.4 µM
  Selectivity Index (SI): 1.72
[8]
  IC50: 8.49 µM

## O=C(Nc1ccc([N+](=O)[O-])cc1)C(Sc1nc2cc(Cl)ccc2s1)c1ccccc1 (stereo not shown) [4e, 2-[(5-Chlorobenzo[d]thiazol-2-yl)thio]-N-(4-nitrophenyl)-2-phenylacetamide]
[9]
  effect on cancer cell viability, potency compared with 2b: greater antiproliferative activity than 2b
[1]
  IC50: 10.7 µM
  Selectivity Index (SI): 1.56
[2]
  Selectivity Index (SI): 0.88
  IC50: 18.9 µM
[4]
  Selectivity Index (SI): 1.70
  IC50: 9.81 µM
[5]
  IC50: 14.1 µM
  Selectivity Index (SI): 1.18
other
  melting point: 191 to 193 °C
[6]
  IC50: 16.7 µM
[7]
  IC50: 12.8 µM
  Selectivity Index (SI): 1.31

## O=C(Nc1cccc([N+](=O)[O-])c1)C(Sc1nc2cc(Cl)ccc2s1)c1ccccc1 (stereo not shown) [4k, 2-[(5-Chlorobenzo[d]thiazol-2-yl)thio]-N-(3-nitrophenyl)-2-phenylacetamide]
[9]
  effect on cancer cell viability, potency compared with 2b: greater antiproliferative activity than 2b
[1]
  IC50: 11.9 µM
  Selectivity Index (SI): 1.96
[2]
  Selectivity Index (SI): 1.73
  IC50: 13.5 µM
[4]
  Selectivity Index (SI): 3.12
  IC50: 7.47 µM
[5]
  IC50: 16.9 µM
  Selectivity Index (SI): 1.38
other
  melting point: 193 to 195 °C
[6]
  IC50: 23.3 µM
[7]
  IC50: 10.1 µM
  Selectivity Index (SI): 2.31

From paper PMC9412555, “Benzothiazole Derivatives Endowed with Antiproliferative Activity in Paraganglioma and Pancreatic Cancer Cells: Structure–Activity Relationship Studies and Target Prediction Analysis” (Pharmaceuticals, 2022)
